Measured values published in US5543415A, “Antidepressants” (Kyowa Hakko Kogyo Co., Ltd., priority 1992, dated 1996).

Tested on: ddY-strain male mice
Test: Acute Toxicity Test (minimum lethal dose, oral)
Type: in vivo
Conditions: seven days after administration
Procedure: Test compounds were orally administered to groups of ddY-strain male mice weighing 20±1 g, each group consisting of three mice. Seven days after the administration, minimum lethal dose (MLD) of each compound was determined by observing the mortality.

Structure (SMILES)	MLD (minimum lethal dose)
CCn1c(=O)c2[nH]c(C(F)=Cc3ccccc3)nc2n(CC)c1=O (stereo in doubt) [Compound 137, (E)-1,3-Diethyl-8-(α-fluorostyryl)xanthine]	> 100 mg/kg
CCn1c(=O)c2c(nc(C(F)=Cc3ccccc3)n2C)n(CC)c1=O (stereo in doubt) [Compound 138, (E)-1,3-Diethyl-8-(α-fluorostyryl)-7-methylxanthine]	> 100 mg/kg
CCCCn1c(=O)c2nc(/C=C/c3cc(OC)c(OC)c(OC)c3)[nH]c2n(CCCC)c1=O [Compound 8, (E)-1,3-Dibutyl-8-(3,4,5-trimethoxystyryl)xanthine]	> 100 mg/kg
CCCCn1c(=O)c2c(nc(/C=C/c3cc(OC)c(OC)c(OC)c3)n2C)n(CCCC)c1=O [Compound 9, (E)-1,3-Dibutyl-7-methyl-8-(3,4,5-trimethoxystyryl)xanthine]	> 300 mg/kg
CCCn1c(=O)c2nc(/C=C/c3cc(OC)c(OC)c(OC)c3)[nH]c2n(CCC)c1=O [Compound 10, (E)-1,3-dipropyl-8-(3,4,5-trimethoxystyryl)xanthine]	> 300 mg/kg
COc1cc(/C=C/c2nc3c(=O)n(C)c(=O)n(C)c3[nH]2)cc(OC)c1OC [Compound 11, (E)-8-(3,4,5-trimethoxystyryl)theophylline]	> 300 mg/kg
C=CCn1c(=O)c2nc(/C=C/c3cc(OC)c(OC)c(OC)c3)[nH]c2n(CC=C)c1=O [Compound 12, (E)-1,3-diallyl-8-(3,4,5-trimethoxystyryl)xanthine]	> 300 mg/kg
CCCn1c(=O)c2[nH]c(/C=C/c3ccc(OC)c(C)c3C)nc2n(CCC)c1=O [Compound 13, (E)-8-(4-Methoxy-2,3-dimethylstyryl)-1,3-dipropylxanthine]	> 300 mg/kg
CCCn1c(=O)c2[nH]c(/C=C/c3ccc(OC)c(C)c3OC)nc2n(CCC)c1=O [Compound 15, (E)-8-(2,4-Dimethoxy-3-methylstyryl)-1,3-dipropylxanthine]	> 100 mg/kg
CCCn1c(=O)c2c(nc(/C=C/c3ccc(OC)c(C)c3OC)n2C)n(CCC)c1=O [Compound 16, (E)-8-(2,4-Dimethoxy-3-methylstyryl)-7-methyl-1,3-dipropylxanthine]	> 300 mg/kg
CCCn1c(=O)c2[nH]c(/C=C/c3ccc4c(c3)OCCO4)nc2n(CCC)c1=O [Compound 17, (E)-8-[2-(1,4-Benzodioxan-6-yl)vinyl]-1,3-dipropylxanthine]	> 300 mg/kg
CCCn1c(=O)c2[nH]c(/C=C/c3ccc4c(c3)OCO4)nc2n(CCC)c1=O [Compound 19, (E)-8-(3,4-Methylenedioxystyryl)-1,3-dipropylxanthine]	> 300 mg/kg
CCCn1c(=O)c2c(nc(/C=C/c3ccc4c(c3)OCO4)n2C)n(CCC)c1=O [Compound 20, (E)-7-Methyl-8-(3,4-methylenedioxystyryl)-1,3-dipropylxanthine]	> 300 mg/kg
CCCn1c(=O)c2nc(/C=C/c3ccc(OC)c(OC)c3OC)[nH]c2n(CCC)c1=O [Compound 21, (E)-1,3-Dipropyl-8-(2,3,4-trimethoxystyryl)xanthine]	> 300 mg/kg
CCCn1c(=O)c2nc(/C=C/c3cc(OC)c(OC)cc3OC)[nH]c2n(CCC)c1=O [Compound 23, (E)-1,3-Dipropyl-8-(2,4,5-trimethoxystyryl)xanthine]	> 300 mg/kg
CCCn1c(=O)c2c(nc(/C=C/c3cc(OC)c(OC)cc3OC)n2C)n(CCC)c1=O [Compound 24, (E)-7-Methyl-1,3-dipropyl-8-(2,4,5-trimethoxystyryl)xanthine]	> 300 mg/kg
CCCn1c(=O)c2[nH]c(/C=C/c3ccc(OC)cc3OC)nc2n(CCC)c1=O [Compound 25, (E)-8-(2,4-Dimethoxystyryl)-1,3-dipropylxanthine]	> 100 mg/kg
CCCn1c(=O)c2c(nc(/C=C/c3ccc(OC)cc3OC)n2C)n(CCC)c1=O [Compound 26, (E)-8-(2,4-Dimethoxystyryl)-7-methyl-1,3-dipropylxanthine]	> 300 mg/kg
CCCn1c(=O)c2[nH]c(/C=C/c3cc(OC)c(OCc4ccccc4)c(OC)c3)nc2n(CCC)c1=O [Compound 27, (E)-8-(4-Benzyloxy-3,5-dimethoxystyryl)-1,3-dipropylxanthine]	> 100 mg/kg
CCCn1c(=O)c2c(nc(/C=C/c3cc(OC)c(OCc4ccccc4)c(OC)c3)n2C)n(CCC)c1=O [Compound 28, (E)-8-(4-Benzyloxy-3,5-dimethoxystyryl)-7-methyl-1,3-dipropylxanthine]	> 100 mg/kg
CCCn1c(=O)c2[nH]c(/C=C/c3cccc(OC)c3OC)nc2n(CCC)c1=O [Compound 29, (E)-8-(2,3-Dimethoxystyryl)-1,3-dipropylxanthine]	> 100 mg/kg

Structure (SMILES)	MLD (minimum lethal dose)
CCCn1c(=O)c2c(nc(/C=C/c3cccc(OC)c3OC)n2C)n(CCC)c1=O [Compound 30, (E)-8-(2,3-Dimethoxystyryl)-7-methyl-1,3-dipropylxanthine]	> 300 mg/kg
CCCn1c(=O)c2[nH]c(/C=C/c3ccc(C)c(C)c3)nc2n(CCC)c1=O [Compound 31, (E)-8-(3,4-Dimethylstyryl)-1,3-dipropylxanthine]	> 100 mg/kg
CCCn1c(=O)c2c(nc(/C=C/c3ccc(C)c(C)c3)n2C)n(CCC)c1=O [Compound 32, (E)-8-(3,4-Dimethylstyryl)-7-methyl-1,3-dipropylxanthine]	> 300 mg/kg
CCCn1c(=O)c2nc(/C=C/c3cc(OC)cc(OC)c3)[nH]c2n(CCC)c1=O [Compound 33, (E)-8-(3,5-Dimethoxystyryl)-1,3-dipropylxanthine]	> 100 mg/kg
CCCn1c(=O)c2c(nc(/C=C/c3cc(OC)cc(OC)c3)n2C)n(CCC)c1=O [Compound 34, (E)-8-(3,5-Dimethoxystyryl)-7-methyl-1,3-dipropylxanthine]	> 300 mg/kg
CCCn1c(=O)c2[nH]c(/C=C/c3cccc([N+](=O)[O-])c3)nc2n(CCC)c1=O [Compound 35, (E)-8-(3-Nitrostyryl)-1,3-dipropylxanthine]	> 100 mg/kg
CCCn1c(=O)c2c(nc(/C=C/c3cccc([N+](=O)[O-])c3)n2C)n(CCC)c1=O [Compound 36, (E)-7-Methyl-8-(3-nitrostyryl)-1,3-dipropylxanthine]	> 100 mg/kg
CCCn1c(=O)c2nc(/C=C/c3cccc(F)c3)[nH]c2n(CCC)c1=O [Compound 37, (E)-8-(3-Fluorostyryl)-1,3-dipropylxanthine]	> 100 mg/kg
CCCn1c(=O)c2c(nc(/C=C/c3cccc(F)c3)n2C)n(CCC)c1=O [Compound 38, (E)-8-(3-Fluorostyryl)-7-methyl-1,3-dipropylxanthine]	> 300 mg/kg
CCCn1c(=O)c2nc(/C=C/c3cccc(Cl)c3)[nH]c2n(CCC)c1=O [Compound 39, (E)-8-(3-Chlorostyryl)-1,3-dipropylxanthine]	> 100 mg/kg
CCCn1c(=O)c2c(nc(/C=C/c3cccc(Cl)c3)n2C)n(CCC)c1=O [Compound 40, (E)-8-(3-Chlorostyryl)-7-methyl-1,3-dipropylxanthine]	> 300 mg/kg
CCCn1c(=O)c2[nH]c(/C=C/c3ccccc3Cl)nc2n(CCC)c1=O [Compound 41, (E)-8-(2-Chlorostyryl)-1,3-dipropylxanthine]	> 100 mg/kg
CCCn1c(=O)c2c(nc(/C=C/c3ccccc3Cl)n2C)n(CCC)c1=O [Compound 42, (E)-8-(2-Chlorostyryl)-7-methyl-1,3-dipropylxanthine]	> 100 mg/kg
CCCn1c(=O)c2[nH]c(/C=C/c3ccccc3F)nc2n(CCC)c1=O [Compound 43, (E)-8-(2-Fluorostyryl)-1,3-dipropylxanthine]	> 100 mg/kg
CCCn1c(=O)c2c(nc(/C=C/c3ccccc3F)n2C)n(CCC)c1=O [Compound 44, (E)-8-(2-Fluorostyryl)-7-methyl-1,3-dipropylxanthine]	> 100 mg/kg
CCCn1c(=O)c2[nH]c(/C=C/c3cc(C)c(OC)cc3C)nc2n(CCC)c1=O [Compound 45, (E)-8-(4-Methoxy-2,5-dimethylstyryl)-1,3-dipropylxanthine]	> 300 mg/kg
CCCn1c(=O)c2c(nc(/C=C/c3cc(C)c(OC)cc3C)n2C)n(CCC)c1=O [Compound 46, (E)-8-(4-Methoxy-2,5-dimethylstyryl)-7-methyl-1,3-dipropylxanthine]	> 300 mg/kg
CCCn1c(=O)c2c(nc(/C=C\c3ccc(OC)c(OC)c3)n2C)n(CCC)c1=O [Compound 47, (Z)-8-(3,4-Dimethoxystyryl)-7-methyl-1,3-dipropylxanthine]	> 300 mg/kg
CCCn1c(=O)c2[nH]c(/C=C/c3ccc(OCC)cc3)nc2n(CCC)c1=O [Compound 48, (E)-8-(4-Ethoxystyryl)-1,3-dipropylxanthine]	> 100 mg/kg
CCCOc1ccc(/C=C/c2nc3c([nH]2)c(=O)n(CCC)c(=O)n3CCC)cc1 [Compound 50, (E)-8-(4-Propoxystyryl)-1,3-dipropylxanthine]	> 100 mg/kg
CCCOc1ccc(/C=C/c2nc3c(c(=O)n(CCC)c(=O)n3CCC)n2C)cc1 [Compound 51, (E)-7-Methyl-8-(4-propoxystyryl)-1,3-dipropylxanthine]	> 300 mg/kg
